For experiment [1], the system named is HeLa. The experiment is described as follows: Cytotoxicity against human HeLa cells assessed as decrease in cell viability at 5 to 50 ug/ml after 24 hrs by MTT assay relative to control. The class given is functional. (In general: Tetrazolium dyes change colour on reduction, which living cells bring about.)
In experiment [2] the test system is Bacillus cereus. The experiment is described as follows: Antibacterial activity against Bacillus cereus at 0.25 mM after 24 hrs by disk diffusion method. The format is functional. The conditions noted are these: read-out: DIZ. A general note: Agar diffusion results depend on both activity and mobility in agar.
Experiment [3] has as its system Escherichia coli. Kind of experiment: Binding affinity to Escherichia coli pBR322 DNA assessed as DNA strand cleavage at 156 to 2500 uM after 24 hrs by agarose gel electrophoresis.
The subject of experiment [4] is Bacillus subtilis. The experiment is described as follows: Antibacterial activity against Bacillus subtilis. The class given is functional.
The test system of experiment [5] is Bacillus subtilis. The experiment is described as follows: Antibacterial activity against Bacillus subtilis at 0.25 mM after 24 hrs by disk diffusion method. The format is functional. The conditions noted are these: read-out: DIZ.
Experiment [6] concerns HeLa. Kind of experiment: Cytotoxicity against human HeLa cells assessed as decrease in cell viability after 24 hrs by MTT assay. The format is functional, cell-based.
For experiment [7], the system named is Bacillus cereus. The experiment is described as follows: Antibacterial activity against Bacillus cereus. The format is functional.
The test system of experiment [8] is Escherichia coli. Kind of experiment: Binding affinity to Escherichia coli pBR322 G/GATCC DNA assessed as DNA strand cleavage at 625 to 2500 uM preincubated for 24 hrs prior to BamHI treatment measured after 1 hr by agarose gel electrophoresis.
The test system of experiment [9] is HeLa. Kind of experiment: Cytotoxicity against human HeLa cells assessed as decrease in cell survival at 10 ug/ml after 48 hrs by trypan blue exclusion assay. The format is functional, cell-based.
Experiment [10] relates to HeLa. Kind of experiment: Induction of apoptosis in human HeLa cells assessed as change in cellular morphology at 25 uM after 24 hrs by propidium iodide staining-based fluorescence microscopic analysis. The format is functional, cell-based.
The subject of experiment [11] is HeLa. Kind of experiment: Induction of apoptosis in human HeLa cells assessed as loss of mitochondrial membrane potential at 25 uM after 24 hrs by DiOC6 staining-based fluorescence microscopic analysis. The class given is functional, cell-based.
The test system of experiment [12] is HeLa. The experiment is described as follows: Induction of apoptosis in human HeLa cells at 25 uM after 48 to 72 hrs by DAPI staining-based fluorescence microscopic analysis. The class given is functional, cell-based.
The test system of experiment [13] is Bacillus cereus. Kind of experiment: Antibacterial activity against Bacillus cereus at 10 ug after 24 hrs by disk diffusion method. The format is functional. The following applies: read-out: DIZ.
The subject of experiment [14] is Bacillus subtilis. The experiment is described as follows: Antibacterial activity against Bacillus subtilis at 10 ug after 24 hrs by disk diffusion method. The format is functional. The following applies: read-out: DIZ.
Experiment [15] deals with Escherichia coli. Kind of experiment: Binding affinity to Escherichia coli pBR322 A/AGCTT DNA assessed as DNA strand cleavage at 625 to 2500 uM preincubated for 24 hrs prior to HindIII treatment measured after 1 hr by agarose gel electrophoresis.
Experiment [16] relates to Candida albicans. Kind of experiment: Antifungal activity against Candida albicans ATCC 10231 at 0.25 mM after 72 hrs by disk diffusion method. The format is functional. The following applies: ATCC 10231, 72 h, read-out: DIZ.
The test system of experiment [17] is Candida tropicalis. Kind of experiment: Antifungal activity against Candida tropicalis ATCC 13803 at 0.25 mM after 72 hrs by disk diffusion method. The class given is functional. The conditions noted are these: ATCC 13803, 72 h, read-out: DIZ.
Experiment [18] concerns Candida albicans. Kind of experiment: Antifungal activity against Candida albicans ATCC 10231. The format is functional.
In experiment [19] the test system is Candida tropicalis. The experiment is described as follows: Antifungal activity against Candida tropicalis ATCC 13803. The class given is functional.
The subject of experiment [20] is Candida tropicalis. Kind of experiment: Antifungal activity against Candida tropicalis ATCC 13803 at 50 ug after 72 hrs by disk diffusion method. The class given is functional. The conditions noted are these: ATCC 13803, 72 h, read-out: DIZ.
Experiment [21] concerns Candida albicans. Kind of experiment: Antifungal activity against Candida albicans ATCC 10231 at 50 ug after 72 hrs by disk diffusion method. The class given is functional. The conditions noted are these: ATCC 10231, 72 h, read-out: DIZ.
Experiment [22] relates to HeLa. Kind of experiment: Cytotoxicity against human HeLa cells assessed as decrease in cell viability at 5 ug/ml after 24 hrs by MTT assay relative to control. The format is functional, cell-based.
For experiment [23], the system named is Bacillus cereus. Kind of experiment: Antibacterial activity against Bacillus cereus at 30 ug after 24 hrs by disk diffusion method. The format is functional. The conditions noted are these: read-out: DIZ.
The test system of experiment [24] is Bacillus subtilis. The experiment is described as follows: Antibacterial activity against Bacillus subtilis at 30 ug after 24 hrs by disk diffusion method. The class given is functional. The conditions noted are these: read-out: DIZ.
Experiment [25] deals with HeLa. Kind of experiment: Cytotoxicity against human HeLa cells assessed as decrease in cell viability at 10 to 50 ug/ml after 24 hrs by MTT assay relative to control. The format is functional, cell-based.

In brackets after ≈: the same amount, converted by molar mass. Activity calls are given as the source filed them. No cut-off for these calls is given here.

Among the data in ChEMBL document CHEMBL3085711, “Phosphorus-nitrogen compounds part 27. Syntheses, structural characterizations, antimicrobial and cytotoxic activities, and DNA interactions of new phosphazenes bearing secondary amino and pendant (4-fluorobenzyl)spiro groups” (2013) are Activity, zone of inhibition and MIC values, retold here.

Take `CN1CCCN(Cc2ccc(F)cc2)P12=NP(N1CCCC1)(N1CCCC1)=NP(N1CCCC1)(N1CCCC1)=N2` (centres undefined): the Activity in experiment [1] was 50%; in [6] it was “Dose-dependent effect”. Besides, the zone of inhibition at 250 µM was found to be 12.6 mm in experiment [2] and 16.5 mm in experiment [5]. Besides, the outcome in experiment [3] and in experiment [8] was Active. Further, the results for the MIC in [4] and in [7] were 9.8 µM (≈ 5.97 µg/mL) and 156 µM (≈ 95.3 µg/mL), respectively.
As to `CN1CCCN(Cc2ccc(F)cc2)P12=NP(N1CCC3(CC1)OCCO3)(N1CCC3(CC1)OCCO3)=NP(N1CCC3(CC1)OCCO3)(N1CCC3(CC1)OCCO3)=N2` (centres undefined), the outcome in experiment [9], in experiment [3], in [11], in [12] and in experiment [8] was Active. The Activity in experiment [1] is listed as 49%. Further, in [10], the result was inactive.
For the molecule `CC1(C)S[C@@H]2[C@H](NC(=O)[C@H](N)c3ccccc3)C(=O)N2[C@H]1C(=O)O` [AMPICILLIN], the zone of inhibition at 10 µg/disc in [13] was 26.3 mm; in [14], 30.3 mm.
As to `CCN1CCN(Cc2ccc(F)cc2)P12=NP(N1CCOCC1)(N1CCOCC1)=NP(N1CCOCC1)(N1CCOCC1)=N2` (centres undefined), the outcome in [1] was inactive. Moreover, the result in experiment [3] and in experiment [15] was Active.
For the molecule `CCN1CCN(Cc2ccc(F)cc2)P12=NP(N1CCC3(CC1)OCCO3)(N1CCC3(CC1)OCCO3)=NP(N1CCC3(CC1)OCCO3)(N1CCC3(CC1)OCCO3)=N2` (centres undefined), in experiment [1], the outcome was inactive. Also, the outcome in [3] and in experiment [8] was Active.
For `CC(=O)O[C@H]1C(=O)[C@@]2(C)[C@H]([C@H](OC(=O)c3ccccc3)[C@]3(O)C[C@H](OC(=O)[C@H](O)[C@@H](NC(=O)c4ccccc4)c4ccccc4)C(C)=C1C3(C)C)[C@]1(OC(C)=O)CO[C@@H]1C[C@@H]2O`, in experiment [1], the outcome was Active. Besides, in [6], the Activity result was “Dose-dependent effect”.
Consider `CN1CCN(Cc2ccc(F)cc2)P12=NP(N1CCCCC1)(N1CCCCC1)=NP(N1CCCCC1)(N1CCCCC1)=N2` (centres undefined), for which the values for the zone of inhibition at 250 µM in experiment [16] and in experiment [17] were 13.6 mm and 17.3 mm, respectively. The result in experiment [3] and in [8] was Active. For the same molecule, the Activity entry in [6] is “Dose-dependent effect”. In addition, the minimum inhibitory concentration (MIC) in [18] and in experiment [19] was 156 µM (≈ 102 µg/mL) in each case.
On to `CN1CCN(Cc2ccc(F)cc2)P12=NP(N1CCCC1)(N1CCCC1)=NP(N1CCCC1)(N1CCCC1)=N2` (centres undefined), for which the result in [3] and in experiment [8] was Active. Further, the MIC (in general, the least concentration at which growth counts as inhibited) in experiment [4] was 9.8 µM (≈ 5.84 µg/mL). Moreover, the zone of inhibition at 250 µM in experiment [5] was determined as 12.3 mm. Besides, the Activity result in [6] was “Dose-dependent effect”.
As to `CC(=O)N1CCN(c2ccc(OCC3COC(Cn4ccnc4)(c4ccc(Cl)cc4Cl)O3)cc2)CC1` (centres undefined) [KETOCONAZOLE], the zone of inhibition at 50 µg/disc in experiment [20] and in experiment [21] was 29 mm throughout.
On to `CCN1CCN(Cc2ccc(F)cc2)P12=NP(N1CCCC1)(N1CCCC1)=NP(N1CCCC1)(N1CCCC1)=N2` (centres undefined), for which the result in [3], in experiment [22] and in [8] was Active. In experiment [4], this molecule returned an MIC of 9.8 µM (≈ 5.97 µg/mL). For the same molecule, the zone of inhibition at 250 µM in experiment [5] came to 11.5 mm. Also, the Activity result in experiment [6] is “Dose-dependent effect”.
In the case of `O=C(N[C@H](CO)[C@H](O)c1ccc([N+](=O)[O-])cc1)C(Cl)Cl` [CHLORAMPHENICOL], the zone of inhibition at 30 µg/disc in [23] is 26 mm; in [24], 31 mm.
Regarding `CN1CCCN(Cc2ccc(F)cc2)P12=NP(N1CCOCC1)(N1CCOCC1)=NP(N1CCOCC1)(N1CCOCC1)=N2` (centres undefined), the Activity in experiment [1] is given as 58%. Also, the result in [10] was inactive. The result in experiment [3], in experiment [15] and in experiment [11] was Active.
Regarding `CN1CCN(Cc2ccc(F)cc2)P12=NP(N1CCC3(CC1)OCCO3)(N1CCC3(CC1)OCCO3)=NP(N1CCC3(CC1)OCCO3)(N1CCC3(CC1)OCCO3)=N2` (centres undefined), the result in [9], in [3], in [11], in experiment [12] and in [8] was Active. Also, the outcome in experiment [1] and in experiment [10] was inactive.
On to `CCN1CCN(Cc2ccc(F)cc2)P12=NP(N1CCCCC1)(N1CCCCC1)=NP(N1CCCCC1)(N1CCCCC1)=N2` (centres undefined), for which the zone of inhibition at 250 µM amounted to 12.3 mm in [16], 17.3 mm in [17] and 10.7 mm in experiment [5]. Further, the outcome in [3] and in experiment [8] was Active. Also, the MIC stood at 156 µM (≈ 104 µg/mL) in experiment [4], 625 µM (≈ 416 µg/mL) in experiment [18] and 19.5 µM (≈ 13 µg/mL) in [19]. Also, in experiment [6], the Activity result was “Dose-dependent effect”.
Take `CN1CCCN(Cc2ccc(F)cc2)P12=NP(N1CCCCC1)(N1CCCCC1)=NP(N1CCCCC1)(N1CCCCC1)=N2` (centres undefined): the zone of inhibition at 250 µM came out at 18.3 mm in [16] and 20 mm in experiment [17]. Besides, the outcome in experiment [3], in experiment [25] and in experiment [8] was Active. Moreover, in [6], the Activity entry is “Dose-dependent effect”. Besides, the MIC in [18] is 9.8 µM (≈ 6.52 µg/mL); in experiment [19] it was 19.5 µM (≈ 13 µg/mL).
For the molecule `CN1CCN(Cc2ccc(F)cc2)P12=NP(N1CCOCC1)(N1CCOCC1)=NP(N1CCOCC1)(N1CCOCC1)=N2` (centres undefined), in experiment [1], the outcome was inactive. Besides, the result in experiment [3] and in [15] was Active.
